Measurements: patent publication US11446264B2, “Memory manipulation via modification of protein kinase C zeta activity” (THE RESEARCH FOUNDATION FOR THE STATE UNIVERSITY OF NEW YORK, priority 2017, dated 2022)
pIC50: −log10 of the molar value.

Assays:
PKC zeta = target: T1, PKC zeta (Homo sapiens, UniProt Q05513); experiment: kinase activity assay ([γ-32P]ATP, e-peptide substrate), PKC zeta; assay type: biochemical
T1 construct: made in house
T1 sequence (Q05513 1-592): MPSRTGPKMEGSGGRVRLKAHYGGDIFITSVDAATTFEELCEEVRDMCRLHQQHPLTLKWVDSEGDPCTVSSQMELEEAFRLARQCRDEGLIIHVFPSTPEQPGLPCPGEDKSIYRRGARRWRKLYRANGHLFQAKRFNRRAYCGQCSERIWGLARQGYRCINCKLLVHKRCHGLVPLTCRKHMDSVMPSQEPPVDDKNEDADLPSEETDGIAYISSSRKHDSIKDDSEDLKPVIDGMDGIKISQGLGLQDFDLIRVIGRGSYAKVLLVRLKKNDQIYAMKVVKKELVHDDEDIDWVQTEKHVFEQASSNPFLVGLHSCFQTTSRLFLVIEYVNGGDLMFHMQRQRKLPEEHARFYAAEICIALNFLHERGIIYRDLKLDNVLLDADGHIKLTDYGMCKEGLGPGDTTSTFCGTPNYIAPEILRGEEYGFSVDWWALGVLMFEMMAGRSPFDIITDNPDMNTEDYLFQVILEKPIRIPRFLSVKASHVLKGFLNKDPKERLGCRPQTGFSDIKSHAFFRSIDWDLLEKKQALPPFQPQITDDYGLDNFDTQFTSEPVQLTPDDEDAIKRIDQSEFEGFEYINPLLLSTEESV
Description: (§1) In separate experiments, PKC zeta and PKM zeta were recombinantly expressed and purified. PKC iota/lambda was purchased from ProQinase GmbH (Freiburg, Germany). The reaction mixture ([…] final volume) contained: 50 mM Tris-HCl (pH 7.4), 10 mM MgCl2, 1 mM DTT, […] e-peptide substrate (ERMRPRKRQGSVRRRV, AnaSpec, Freemont, Calif.), in the presence or absence of phosphatidylserine (5 mg/ml, Avanti Polar Lipids, Alabaster, Ala.), and PKC iota/lambda (184 ng, 0.2 pmol/min per assay) or PKM zeta (4 ng, 0.2 pmolmin-1/assay), in the presence or absence of NSA at concentrations given on the X axis. The reaction, initiated with the addition of […] (final concentration, ˜1-3 μCi [γ-32P]/assay), was for 30 min at 30° C., which is in the linear range for enzyme concentration (data not shown). The reaction was stopped by addition of […] of 100 mM cold ATP and 100 mM EDTA, and 40 ml of the reaction mixture was spotted onto phosphocellulose paper and counted by liquid scintillation. Activity was measured as the difference between counts incorporated in the presence and absence of enzyme. Autonomous kinase activity is defined as activity in the absence of phosphatidylserine. […] Thus, as disclosed herein, administering NSA inhibits activity of PKC zeta and PKM zeta.

PKC iota/lambda = target: T2, PKC iota/lambda (Homo sapiens, UniProt P41743); experiment: kinase activity assay ([γ-32P]ATP, e-peptide substrate), PKC iota/lambda; assay type: biochemical; conditions: at doses up to 10 μM
T2 construct: purchased ProQinase GmbH (Freiburg, Germany)
T2 sequence (P41743 1-596): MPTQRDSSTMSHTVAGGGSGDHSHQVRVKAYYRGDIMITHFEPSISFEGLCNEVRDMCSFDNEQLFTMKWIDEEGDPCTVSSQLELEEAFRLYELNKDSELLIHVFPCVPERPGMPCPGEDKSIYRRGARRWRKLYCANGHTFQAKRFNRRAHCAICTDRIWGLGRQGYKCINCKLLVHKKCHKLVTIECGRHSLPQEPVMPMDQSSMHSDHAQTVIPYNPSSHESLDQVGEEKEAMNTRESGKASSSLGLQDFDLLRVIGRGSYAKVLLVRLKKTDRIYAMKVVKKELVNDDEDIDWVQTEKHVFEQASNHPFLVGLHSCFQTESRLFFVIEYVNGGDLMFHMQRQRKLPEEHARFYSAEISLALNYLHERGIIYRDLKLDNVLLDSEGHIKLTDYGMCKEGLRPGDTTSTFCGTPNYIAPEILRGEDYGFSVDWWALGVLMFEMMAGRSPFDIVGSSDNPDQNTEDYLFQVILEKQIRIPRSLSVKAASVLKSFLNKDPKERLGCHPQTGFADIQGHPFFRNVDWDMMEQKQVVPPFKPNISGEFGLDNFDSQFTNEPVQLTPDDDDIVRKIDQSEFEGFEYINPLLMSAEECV
Description: as §1

[1] = test system: hippocampal slices from wild-type mice; experiment: maintenance of LTP in hippocampal slices from wild-type mice; assay type: cell-based, mouse; conditions: NSA 10 μM applied 3 h post-tetanization, FIG. 3
Description: (§2) Acute mouse hippocampal slices (450 μm) were dissected, bathed in ice-cold dissection buffer, and sliced with a McIlwain tissue slicer in a cold room (4° C.). The dissection buffer contained (in mM): 125 NaCl, 2.5 KCl, 1.25 NaH2PO4, 26 NaHCO3, 11 glucose, 10 MgCl2, and 0.5 CaCl2, and was bubbled with 95% O2/5% CO2 to maintain the pH at 7.4. The slices were immediately transferred into an interface recording chamber (31.5±1° C.). The recording superfusate consisted of (in mM): 118 NaCl, 3.5 KCl, 2.5 CaCl2, 1.3 MgSO4, 1.25 NaH2PO4, 24 NaHCO3, and 15 glucose, bubbled with 95% O2/5% CO2, with a flow rate of 0.5 ml/min. […] Pathway independence was confirmed by the absence of paired-pulse facilitation between the two pathways. The high-frequency stimulation consisted of standard two 100 Hz-1 s tetanic trains, at 25% of spike threshold, spaced 20 s apart, which is optimized to produce a relatively rapid onset of protein synthesis-dependent late-LTP. The maximum slope of the rise of the fEPSP is analyzed on a PC using the WinLTP data acquisition program. Application of NSA (black bar) beginning 3 hr after application of high-frequency stimulation reversed the maintenance of LTP seen during this time period, which is known to require PKC zeta/PKM zeta activity.

[2] = test system: hippocampal slices from mice lacking expression of PKC zeta/PKM zeta; experiment: maintenance of LTP in hippocampal slices from PKC zeta/PKM zeta null mice; assay type: cell-based, mouse; conditions: FIG. 4
Description: as §2, with “activity. […]” for “activity.”

wild-type mice [3] = experiment: active place avoidance, long-term memory retention, wild-type mice; assay type: in vivo, mouse; conditions: 5 nmol in 0.5 μl/hippocampus, 1 day after training, FIG. 5
Description: (§3) A commercial computer-controlled active place avoidance system was used (Bio-Signal Group, Acton, Mass.). The position of the mouse on a 40 cm diameter circular arena rotating at 1 rpm was determined 30 times per second by video tracking from an overhead camera (Tracker, Bio-Signal Group). All experiments used the ‘Room+Arena−’ task variant that challenges the mouse on the rotating arena to avoid a shock zone that was a stationary 60° sector. A constant current foot-shock (60 Hz, 500 ms) was delivered after entering the shock zone for 500 ms and was repeated each 1500 ms until the mouse left the shock zone. The arena rotation periodically transported the animal into the shock zone, forcing it to actively avoid the location of shock. The shock amplitude was 0.2 or 0.3 mA, which was determined for each animal in the first session to be the minimum that elicited flinch or escape responses.
(§4) A clear wall made from Polyethylene Terephtalate Glycol-modified (PET-G) prevented the animal from jumping off the elevated arena surface. […] Every 33 ms, the software determined the mouse's position, whether it was in the shock zone, and whether to deliver shock. The time series of the tracked positions was analyzed offline (TrackAnalysis, Bio-Signal Group) to extract a number of end point measures. […]

PKCζ-null mice = experiment: active place avoidance, long-term memory retention, PKC zeta/PKM zeta null mice; assay type: in vivo, mouse; conditions: 5 nmol in 0.5 μl/hippocampus, 1 day after training, FIG. 5
Description: as §3, §4

wild-type mice [4] = experiment: active place avoidance, retraining and retesting in a different context after NSA; assay type: in vivo, mouse; conditions: n's=5, FIG. 6
Excerpt: Above, representative diagram of training protocol, similar to that described for FIG. 5. After training, memory erasure by NSA injection in hippocampus, and retention testing in one context, mice are immediately retrained and retested in a different context. NSA on relearning ([…] with repeated measurements). There is a significant interaction between the effects of treatment (control, NSA) and trials (pretraining, training, retention in two environments) (F5,40=4.41, P=0.0027). The main effect of treatment is F1,8=3.34, p=0.10. […] Thus, the effects NSA administration has on inhibiting memory are not due to generalized, permanent damage to neural substrates responsible for learning and memory.

pIC50 (PKC zeta; FIG. 2, mean±SEM, ns=3, 30 min at 30° C., read-out: IC50 as a negative modulator of PKC zeta/PKM zeta activity): 6.70 to 7.00
decrease of PKC zeta/PKM zeta activity (PKC zeta; FIG. 2, extent of decrease): approximately 50%
effect on PKC iota/lambda kinase activity (PKC iota/lambda): without effect
memory retention of the post-injection training (different context) (wild-type mice [4]; retrained and retested after NSA injection in hippocampus): no effect
SMILES: O=S(=O)(O)c1cc(O)c2c(S(=O)(=O)O)cc(S(=O)(=O)O)cc2c1 [NSA, 1-naphthol-3,6,8-trisulphonic acid]
maintenance of LTP (fEPSP slope) [1]: reverses maintenance of LTP
maintenance of LTP (fEPSP slope) [2]: no effect on maintenance of LTP
retention of avoidance (time to first enter the shock zone) (wild-type mice [3]): inhibited retention of avoidance
retention of avoidance (time to first enter the shock zone) (PKCζ-null mice): did not affect retention testing
memory retention of the pre-injection training (wild-type mice [4]; NSA injection in hippocampus): disrupts memory retention
